One assay concerns PDE4B2. Briefly: PDE4B2 expression (RT-PCR) in BEAS-2B cells. Type of assay: cell-based, human. The following applies: for NTHi-induced PDE4B2 expression (synergy with NTHi): cAMP elevator / PKA or Epac activator with NTHi. The procedure: (§1) Bacterial strains and culture condition. Clinical isolates of NTHi strain 12 were used in this study (Ishinaga et al., EMBO J., 26(4):1150-1162, 2007). Bacteria were grown on chocolate agar plates at 37° C. in an atmosphere of 5% CO2 overnight and subsequently inoculated in brain heart infusion (BHI) broth supplemented with 3.5 μg/mL NAD and hemoglobin (BD Biosciences). After overnight incubation, the bacteria were subcultured into fresh broth and the log phase bacteria, monitored by measurement of optical density (OD) value, were washed and suspended in DMEM for in vitro cell experiments and in isotonic saline for in vivo animal experiments. For all in vitro experiments except the dose dependent experiment, NTHi was treated at multiplicity of infection (MOI) of 50.
(§2) Cell culture. All media described below were supplemented with 10% fetal bovine serum (Sigma-Aldrich). Human bronchial epithelial BEAS-2B cells were maintained in RPMI medium (Life Technologies) (ATCC® CRL-9609™). Human primary bronchial epithelial NHBE (Lonza) cells were maintained in bronchial epithelial growth media (BEGM) supplemented with BEGM SingleQuots (Jono et al., J. Biol. Chem. 277(47):45547-45557, 2002). BEAS-2B cells stably expressing human PDE4B2 (PDE4B2-stable cells) were obtained by plasmid transfection following Geneticin selection (300 μg/mL). Cells were cultured in a humidified atmosphere of 5% CO2 at 37° C.
Plasmids, transfections and luciferase assay. The expression plasmids, constitutively active forms of IKKα (IKKα-CA, S176E/S180E) and IKKβ (IKKβ-CA, S177E/S181E) and a dominant negative form of IκBα (IκBα-DN, S32A/S36A) were previously described (Shuto et al., Proc. Natl. Acad. Sci. USA, 98(15):8774-8779, 2001; Ishinaga et al., supra). Luciferase reporter construct of NF-κB (pGL4.32) was purchased from Promega. Human PDE4B2, p65 (RelA) and PKA-Cβ1/2 cDNA sequences were generated and inserted into the BamHI and HindIII sites of the pcDNA3.1/mycHis(−) vector. Mutant p65 and PDE4B2-D392A were generated by using PRIMESTAR® Max (Takara). Empty vector was used as a control and was also added where necessary to ensure an equivalent amount of input DNA. All transient transfections were carried out in triplicate using TRANSIT-LT1® reagent (Minis) following the manufacturer's instruction.

The next assay deals with p65. In words: p65 phosphorylation by Phos-tag PAGE in BEAS-2B cells. It is filed as cell-based, human. As to the method: Phos-tag PAGE. Recombinant p65 proteins or nuclear extracts recovered without EDTA/EGTA were separated by SDS-PAGE, with 6% gels containing 50 μM Mn^2+-Phos-tag Acrylamide and transferred to PVDF membrane according to the manufacture's instructions (Kinoshita et al., Mol. Cell. Proteomics 5(4):749-757, 2006.

Assay [1] has as its system NTHi-induced inflammation. In words: NTHi-induced inflammation in mouse lung (proinflammatory mediator mRNA, H&E staining). Type of assay: in vivo. The following applies: DEX 2 mg/kg i.p. and Rof 5 mg/kg i.p. 2 h before NTHi 5×10^7 CFU/lung. The procedure: Mice and animal experiments. For NTHi-induced inflammation in C57BL/6J mice (7 weeks old), anaesthetized mice were intratracheally inoculated with NTHi at a concentration of 5×10^7 CFU per mouse and saline was inoculated as control.
. We pre-treated BEAS-2B cells with Rof (1 μM), FSK (1 μM), Iso (0.1 μM) and DEX (10 nM) for 1 h followed by 1.5 h stimulation with NTHi, and PDE4B mRNA expression was analyzed by Q-PCR (FIGS. 7A and 7B). We also pre-treated BEAS-2B cells with Rof (0.1 μM) and DEX (6.5 nM) for 1 h followed by 1.5 h stimulation with NTHi, and PDE4B2 mRNA expression was analyzed by semi-quantitative RT-PCR (FIG. 7C). To assess protein expression, BEAS-2B cells were pre-treated with Rof (0.1 μM) and DEX (100 nM) for 1 h followed by a 5 h stimulation with NTHi, and PDE4B protein expression was analyzed by immunoblot (FIG. 7D). Each target data were normalized with NTHi treated. Data are mean±SD (n=3); *p<0.05 vs NTHi; ^†p<0.05 vs Rof+NTHi. […] After 5 h, mRNA expression in lung tissues were analyzed by Q-PCR for assessing the expression of PDE4B or various proinflammatory mediators and lung tissues were stained against PDE4B (Magnification ×200, Scale bar, 100 μm) (FIG. 7F) and assessed for inflammation using H&E staining (FIG. 7H).

In assay [2] the test system is PDE4B. In words: PDE4B mRNA expression in lung tissues of NTHi-inoculated mice. The conditions noted are these: mouse lung; DEX 2 mg/kg i.p. and Rof 5 mg/kg i.p. 2 h before NTHi; after 5 h.
The subject of assay [3] is PDE4B. Briefly: PDE4B mRNA expression (Q-PCR) in BEAS-2B cells stimulated with NTHi. The conditions noted are these: BEAS-2B; ActD 5 ng/ml and Rof 0.1 μM 1 hour, then 1.5-hour NTHi. It is filed as cell-based, human. As to the method: as §1, §2
Where [4] appears, read: BEAS-2B cells, inhibitor treatment.

Numbered stars: 1 amine (or outer) side, 2 acyl side, 3 side chain; on linkers, the order of the positions; unused ones are H or OH. Bridge positions count the residues as written; N and C are the ends. Square brackets hold non-standard residues; d marks the D form. Peptide text beside a SMILES is read from it. I, II: the chains in the order shown. Actinocin(9to1) = Cc1c2oc3c(C)ccc(C(=O)[*:1])c3nc-2c(C(=O)[*:2])c(N)c1=O; NMeV = CN[C@H](C(=O)O)C(C)C; Sar = CNCC(=O)O

Turning to `CO[C@@H]1[C@@H]2OP(=O)(O)OC[C@H]2O[C@H]1n1c(Sc2ccc(Cl)cc2)nc2c(N)ncnc21` [8-pCPT-2′-O-Me-cAMP], the “NTHi-induced PDE4B2 expression (synergy with NTHi)” value with PDE4B2 (BEAS-2B cells) is reported as “did not markedly synergize”. `COc1cccc(-c2cc(=O)c3ccccc3o2)c1N` [PD98059]: in the assay with p65, the “phosphorylation of p65 induced by overexpression of PKA-Cβ1 (inhibition)” value (“phosphorylation … of PKA-Cβ1 (inhibition)” below) was “not”. Regarding `O=P1(O)OC[C@H]2O[C@@H](n3cnc4c(Nc5ccccc5)ncnc43)[C@@H](O)C2O1` (stereo partly shown) [6-Phe-cAMP, N^6-Phenyl-cAMP], in the assay on PDE4B2 (BEAS-2B cells), the “NTHi-induced PDE4B2 expression (synergy with NTHi)” value is listed as “synergistically enhanced”. In addition, the PDE4B2 expression result in the assay with PDE4B2 (in IKKβ-CA- but not IKKα-CA-transfected BEAS-2B cells) is reported as “synergistically enhanced”. Further, in the assay on p65 (roflumilast as co-treatment with NTHi), the “phosphorylation of p65 (induction)” value is on record as “induced this phosphorylation”. As to `O=S(=O)(NCCNC/C=C/c1ccc(Br)cc1)c1cccc2cnccc12` [H89], in the assay on p65, the “phosphorylation … of PKA-Cβ1 (inhibition)” value is recorded as “inhibited”. `C[C@@H]1C[C@H]2[C@@H]3CCC4=CC(=O)C=C[C@]4(C)[C@@]3(F)[C@@H](O)C[C@]2(C)[C@@]1(O)C(=O)CO` [Dexamethasone, dexamethasone]: the “efficacy of Rof in suppressing NTHi-induced inflammation” value in assay [1] is given as “improves the efficacy of Rof”. Moreover, the “PDE4B induction by NTHi and Rof” value in the assay on PDE4B [2] is listed as “suppresses”. Regarding `Cc1c2oc3c(C)ccc(C(=O)N[C@@H]4C(=O)N[C@H](C(C)C)C(=O)N5CCC[C@H]5C(=O)N(C)CC(=O)N(C)[C@@H](C(C)C)C(=O)O[C@@H]4C)c3nc-2c(C(=O)N[C@@H]2C(=O)N[C@H](C(C)C)C(=O)N3CCC[C@H]3C(=O)N(C)CC(=O)N(C)[C@@H](C(C)C)C(=O)O[C@@H]2C)c(N)c1=O` [ActD, actinomycin D] (I: T[dV]P[Sar][NMeV] / II: T[dV]P[Sar][NMeV]; ester I:1-I:C, II:1-II:C; linker I:N-II:N via Actinocin(9to1)), the “PDE4B induction by NTHi and roflumilast” value in the assay on PDE4B [3] is on record as “completely abrogated”.

For the molecule `Nc1ncnc2c1nc(Sc1ccc(Cl)cc1)n2[C@@H]1O[C@@H]2COP(O)(=S)O[C@H]2[C@H]1O` (stereo partly shown) [Rp-8-CPT-cAMPS], the “phosphorylation of p65 induced by co-treatment of roflumilast with NTHi (inhibition)” value in the assay on p65 was “inhibited”.

For the molecule `NC(=O)Nc1sc(-c2ccc(F)cc2)cc1C(N)=O` [IKKβ inhibitor], in the assay with PDE4B2 (setting [4]), the “induction of PDE4B2 by roflumilast alone” value is on record as “did not affect”; the “synergistic induction of PDE4B2 by NTHi and roflumilast” value is reported as “significantly inhibited”. On to `C[S+]([O-])c1ccc(-c2nc(-c3ccncc3)c(-c3ccc(F)cc3)[nH]2)cc1` (stereo not shown) [SB203580], for which the “phosphorylation … of PKA-Cβ1 (inhibition)” value in the assay with p65 is “not”.

Values taken from patent US11045456B2, “Compositions and methods for treating COPD and other inflammatory conditions” (Georgia State University Research Foundation, Inc., priority 2015, dated 2021).
